From US20240327392A1, “HETEROCYCLOALKYL-SUBSTITUTED POLYHETEROAZOLE DERIVATIVES AS MEDICAMENTS FOR TREATING AND/OR PREVENTING RS VIRUS INFECTIONS” (ALBIUS SCIENCES ALPHA PRIVATE LIMITED, priority 2021, published 2024) come the findings set out here.

pIC50: −log10 of the molar value.

This assay deals with human RS virus A2 strain. The experiment in a line: In vitro test for anti-RS virus proliferation inhibitory activity (quantitative RT-PCR of RS virus RNA copy number in infected Vero cells). In kind it is cell-based. The following applies: 72 h; Vero cells infected with human RS virus A2 strain, 3 days of incubation, RS virus RNA copy number by quantitative RT-PCR; read-out: Anti-RS virus Activity. An outline of the steps: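 Vero cells infected with RSV A2 (1.7×10^4 TCID50/mL in inoculum mix) with compound in 10% FCS EMEM, 3 days at 37 °C, 5% CO2. Lysate viral N-gene RNA quantified by one-step SYBR qRT-PCR; copy number by comparative Ct relative to untreated infected cells.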
As to `CC(C)CS(=O)(=O)N1C[C@H](F)C[C@H]1c1nc(CCCc2ccccc2)no1` [Compound 8A, 3-(3-phenylpropyl)-5-[(2S,4R)-1-isobutylsulfonyl-4-fluoropyrrolidin-2-yl]-1,2,4-oxadiazole], the pIC50 is 4.30 to 5.00.
As for `O=S(=O)(N1CCCCC1)N1C[C@H](F)C[C@H]1c1nc(CCCc2ccccc2)no1` [Compound 8AD, 5-((2S,4R)-4-fluoro-1-(piperidin-1-ylsulfonyl)pyrrolidin-2-yl)-3-(3-phenylpropyl)-1,2,4-oxadiazole], the pIC50 was 4.30 to 5.00.
For `COc1ccc(S(=O)(=O)N2C[C@H](F)C[C@H]2c2nc(CCCc3ccccc3)no2)cc1` [Compound 8AI, 5-((2S,4R)-4-fluoro-1-((4-methoxyphenyl)sulfonyl)pyrrolidin-2-yl)-3-(3-phenylpropyl)-1,2,4-oxadiazole], the pIC50 is > 5.00.
Turning to `O=S(=O)(c1ccc(F)cc1)N1C[C@H](F)C[C@H]1c1nc(CCCc2ccccc2)no1` [Compound 8AJ, 5-((2S,4R)-4-fluoro-1-((4-fluorophenyl)sulfonyl)pyrrolidin-2-yl)-3-(3-phenylpropyl)-1,2,4-oxadiazole], the pIC50 is > 5.00.
The same measure for `CN(C)c1ccc(S(=O)(=O)N2C[C@H](F)C[C@H]2c2nc(CCCc3ccccc3)no2)cc1` [Compound 8AK, 4-(((2S,4R)-4-fluoro-2-(3-(3-phenylpropyl)-1,2,4-oxadiazole-5-yl)pyrrolidin-1-yl)sulfonyl)-N,N-dimethylaniline]: > 5.00.
For the molecule `CN(C)c1cccc2c(S(=O)(=O)N3C[C@H](F)C[C@H]3c3nc(CCCc4ccccc4)no3)cccc12` [Compound 8AL, 5-(((2S,4R)-4-fluoro-2-(3-(3-phenylpropyl)-1,2,4-oxadiazole-5-yl)pyrrolidin-1-yl)sulfonyl)-N,N-dimethylnaphthalen-1-amine], the pIC50 is > 5.00.
The same measure for `CS(=O)(=O)N1C[C@H](F)C[C@H]1c1nc(CCCc2ccccc2)no1` [Compound 8C, 3-(3-phenylpropyl)-5-[(2S,4R)-1-methanesulfonyl-4-fluoropyrrolidin-2-yl]-1,2,4-oxadiazole]: < 4.30; for `O=S(=O)(c1ccccc1)N1C[C@H](F)C[C@H]1c1nc(CCCc2ccccc2)no1` [Compound 8D, 3-(3-phenylpropyl)-5-[(2S,4R)-1-benzenesulfonyl-4-fluoropyrrolidin-2-yl]-1,2,4-oxadiazole]: 4.30 to 5.00; for `O=S(=O)(Cc1ccccc1)N1C[C@H](F)C[C@H]1c1nc(CCCc2ccccc2)no1` [Compound 8E, 3-(3-phenylpropyl)-5-[(2S,4R)-1-benzylsulfonyl-4-fluoropyrrolidin-2-yl]-1,2,4-oxadiazole]: > 5.00.
In the case of `CC(C)(C)OC(=O)N1CCC[C@H]1c1nc(CCc2ccccc2)no1` [Compound 9-1, 3-(2-phenylethyl)-5-[(2S)-1-tert-butoxycarbonylpyrrolidin-2-yl]-1,2,4-oxadiazole], the pIC50 was < 4.30.
Consider `CC(C)CS(=O)(=O)N1CCC[C@H]1c1nc(CCc2ccccc2)no1` [Compound 9A, 3-(2-phenylethyl)-5-[(2S)-1-isobutylsulfonylpyrrolidin-2-yl]-1,2,4-oxadiazole], for which the pIC50 is < 4.30.
For the molecule `CC(C)(C)OC(=O)N1CCCC[C@H]1c1nc(CCc2ccccc2)no1` [Compound 10-1, 3-(3-phenylethyl)-5-[(2S)-1-tert-butoxycarbonylpiperidin-2-yl]-1,2,4-oxadiazole], the pIC50 was 4.30 to 5.00.
Turning to `CC(C)CS(=O)(=O)N1CCCC[C@H]1c1nc(CCc2ccccc2)no1` [Compound 10A, 3-(2-phenylethyl)-5-[(2S)-1-isobutylsulfonylpiperidin-2-yl]-1,2,4-oxadiazole], the pIC50 is < 4.30.
Under `CC(C)NC(=O)N1CCCC[C@H]1c1nc(CCc2ccccc2)no1` [Compound 10G, (S)—N-isopropyl-2-(3-phenethyl-1,2,4-oxadiazol-5-yl) piperidine-1-carboxamide] stands < 4.30; under `CC(C)CS(=O)(=O)N1CCC[C@H]1c1nc(CNC(=O)c2cccc3ccccc23)no1` [Compound 11A, 3-[(1-naphthoylamino)methyl]-5-[(2S)-1-isobutylsulfonylpyrrolidin-2-yl]-1,2,4-oxadiazole], > 5.00; under `O=C(NCc1noc([C@@H]2CCCN2S(=O)(=O)C2CCCCC2)n1)c1cccc2ccccc12` [Compound 11B, 3-[(1-naphthoylamino)methyl]-5-[(2S)-1-cyclohexylsulfonylpyrrolidin-2-yl]-1,2,4-oxadiazole], 4.30 to 5.00.
`CC(C)(C)OC(=O)N1CCCC[C@H]1c1nc(CCc2ccncc2)no1` [Compound 12-1, Tert-butyl (S)-2-(3-(2-(pyridin-4-yl)ethyl)-1,2,4-oxadiazol-5-yl)piperidine-1-carboxylate]: the pIC50 was > 5.00.
With `CC(C)CS(=O)(=O)N1CCCC[C@H]1c1nc(CCc2ccncc2)no1` [Compound 12A, (S)-5-(1-(Isobutylsulfonyl)piperidin-2-yl)-3-(2-(pyridin-4-yl)ethyl)-1,2,4-oxadiazole], the pIC50 is > 5.00.
Turning to `CC(C)(C)NC(=O)N1CCCC[C@H]1c1nc(CCc2ccncc2)no1` [Compound 12H, (S)—N-(tert-butyl)-2-(3-(2-(pyridin-4-yl)ethyl)-1,2,4-oxadiazol-5-yl)piperidine-1-carboxamide], the pIC50 is 4.30 to 5.00.
As for `CC(C)(C)OC(=O)N1C[C@H]2CC[C@]1(c1nc(CCc3ccncc3)no1)CC2` [Compound 13-1, Tert-butyl (1s,4s)-1-(3-(2-(pyridin-4-yl)ethyl)-1,2,4-oxadiazol-5-yl)-2-azabicyclo[2.2.2]octane-2-carboxylate], the pIC50 is 4.30 to 5.00.
Under `CC(C)(C)NC(=O)N1C[C@H]2CC[C@]1(c1nc(CCc3ccncc3)no1)CC2` [Compound 13H, (1s, 4s)-N-(tert-butyl)-1-(3-(2-(pyridin-4-yl)ethyl)-1,2,4-oxadiazol-5-yl)-2-azabicyclo[2.2.2]octane-2-carboxamide] stands < 4.30; under `CC(C)(C)OC(=O)N1[C@@H]2CC[C@@H](C2)[C@H]1c1nc(CCc2ccccc2)no1` [Compound 14-1, Tert-butyl (1R,3S,4S)-3-(3-phenethyl-1,2,4-oxadiazol-5-yl)-2-azabicyclo[2.2.1]heptane-2-carboxylate], > 5.00; under `CC(C)CS(=O)(=O)N1[C@@H]2CC[C@@H](C2)[C@H]1c1nc(CCc2ccccc2)no1` [Compound 14A, 5-((1R,3S,4S)-2-(isobutylsulfonyl)-2-azabicyclo[2.2.1]heptan-3-yl)-3-phenethyl-1,2,4-oxadiazole], 4.30 to 5.00.
Consider `CC(C)(C)OC(=O)N1C[C@H]2CC[C@]1(c1nc(CCc3ccccc3)no1)CC2` [Compound 15-1, Tert-butyl (1s,4s)-1-(3-phenethyl-1,2,4-oxadiazol-5-yl)-2-azabicyclo[2.2.2]octane-2-carboxylate], for which the pIC50 was 4.30 to 5.00.
The same measure for `CS(=O)(=O)N1C[C@H]2CC[C@]1(c1nc(CCc3ccccc3)no1)CC2` [Compound 15C, 5-((1s,4s)-2-(methylsulfonyl)-2-azabicyclo[2.2.2]octan-1-yl)-3-phenethyl-1,2,4-oxadiazole]: 4.30 to 5.00; for `CC(C)(C)OC(=O)N1CCCC[C@H]1c1nnc(CCc2ccccc2)o1` [Compound 17-1, Tert-butyl (S)-2-(5-phenethyl-1,3,4-oxadiazol-2-yl) piperidine-1-carboxylate]: > 5.00; for `CC(C)(C)OC(=O)N1CCCC[C@H]1c1nnc(CCCc2ccccc2)o1` [Compound 18-1, Tert-butyl (S)-2-(5-(3-phenylpropyl)-1,3,4-oxadiazol-2-yl) piperidine-1-carboxylate]: > 5.00.
As for `CC(C)(C)OC(=O)N1C[C@H](c2ccccc2)C[C@H]1c1nnc(CCCc2ccccc2)[nH]1` [Compound 19-1, Tert-butyl (2S,4S)-4-phenyl-2-(5-(3-phenylpropyl)-4H-1,2,4-triazol-3-yl)pyrrolidine-1-carboxylate], the pIC50 was > 5.00.
With `CC(C)(C)OC(=O)N1CCCC[C@H]1c1nnc(CCCc2ccccc2)[nH]1` [Compound 20-1, Tert-butyl (S)-2-(5-(3-phenylpropyl)-4H-1,2,4-triazol-3-yl) piperidine-1-carboxylate], the pIC50 is > 5.00.
`O=C(NCc1noc([C@@H]2CCCCN2S(=O)(=O)C2CCCCC2)n1)c1ccc2c(c1)OCO2` [Compound 21B, (S)—N-((5-(1-(cyclohexylsulfonyl)piperidin-2-yl)-1,2,4-oxadiazol-3-yl)methyl)benzo[d][1,3]dioxol-5-carboxamide]: the pIC50 was < 4.30.
On to `COc1ccc(CCCc2noc([C@@H]3CCCCN3C(=O)OC(C)(C)C)n2)cc1OC` [Compound 22-1, Tert-butyl (S)-2-(3-(3-(3,4-dimethoxyphenyl)propyl)-1,2,4-oxadiazol-5-yl)piperidine-1-carboxylate], for which the pIC50 is > 5.00.
With `COc1ccc(CCCc2noc([C@@H]3CCCCN3S(=O)(=O)C3CCCCC3)n2)cc1OC` [Compound 22B, (S)-5-(1-(cyclohexylsulfonyl)piperidin-2-yl)-3-(3-(3,4-dimethoxyphenyl)propyl)-1,2,4-oxadiazole], the pIC50 is > 5.00.
In the case of `CC(C)(C)OC(=O)N1CCCC[C@H]1c1nc(CC(=O)Nc2ccccc2)no1` [Compound 23-1, Tert-butyl (S)-2-(3-(2-oxo-2-(phenylamino)ethyl)-1,2,4-oxadiazol-5-yl)piperidine-1-carboxylate], the pIC50 is 4.30 to 5.00.
For `CC(C)(C)OC(=O)N1[C@@H]2CC[C@@H](C2)[C@H]1c1nnc(Cc2c[nH]c3ccccc23)[nH]1` [Compound 24-1, Tert-butyl (1R,3S,4S)-3-(5-((1H-indol-3-yl)methyl)-4H-1,2,4-triazol-3-yl)-2-azabicyclo[2.2.1]heptane-2-carboxylate], the pIC50 was 4.30 to 5.00.
Regarding `O=C(NCc1cnc2ccccc2c1)N1[C@@H]2CC[C@@H](C2)[C@H]1c1nnc(Cc2c[nH]c3ccccc23)[nH]1` [Compound 24AH], the pIC50 is 4.30 to 5.00.
